According to patent US20250339408A1, “TREATMENT AND PREVENTION OF BASAL CELL CARCINOMA WITH TOPICAL COMPOSITION COMPRISING PATIDEGIB” (Sol-Gel Technologies Ltd., priority 2023, published 2025):

Assays:
[1] = system: basal cell carcinoma (BCC) lesions on the face; assay: Randomized, double-blind, vehicle-controlled study of Patidegib Topical Gel, 2% in Gorlin syndrome participants with PTCH1 mutation (Example 2); assay type: in vivo, human
Excerpt: The term “nSEB” refers to BCCs with a longest diameter of ≥5 mm that: • a. were not surgically eligible BCCs (SEBs) at baseline; • b. have grown by ≥2 mm in longest diameter from baseline; and • c. have been verified histologically.
The term “SEB” refers to surgically eligible BCCs with a longest diameter of ≥5 mm.
The term “resolved SEB lesions” refers to BCCs lesions which no longer requires a surgical removal treatment. In another embodiment the term “resolved SEB lesions” refers to BCCs lesions with a diameter <5 mm or the BCC lesions are completely disappeared.
(§1) A randomized, double-blind, stratified, vehicle-controlled study was done, measuring the efficacy and safety of Patidegib Topical Gel, 2%, applied topically twice daily to the face of adult participants with Gorlin syndrome. The Participants were required to apply the investigational product for 12 months. The primary endpoint is a comparison between the two treatment—Patidegib Topical Gel, 2%, versus Vehicle, resulted the of the number of new BCCs that develop over the 12 month period.
Participants will be randomized to receive Patidegib Topical Gel, 2%. The Patidegib Topical Gel, 2% will be dispensed to participants at each study visit and applied topically twice daily to the face.
Participants will be randomized to receive Vehicle. The Patidegib Topical Gel, Vehicle will be dispensed to participants at each study visit and applied topically twice daily to the face.
• 1. The participant must be age at least 18 years of age at the Screening Visit. • 2. The participant must provide written informed consent prior to any study procedures. • 3. The participant must meet diagnostic criteria for the basal cell nevus (Gorlin) syndrome including PTCH1 gene mutation, or at least 6 histologically confirmed facial BCC lesions at Baseline and PTCH1 gene mutation. • 4. The participant is willing to have blood collected to measure circulating drug levels. • 5. The participant is willing to abstain from application of a non-study topical medication (prescription or over the counter) to facial skin for the duration of the trial except as prescribed by the Investigator. Moisturizers and emollients are allowed. Participant will be encouraged to use their preferred sunscreen with a sun protector factor (SPF) of at least 30 daily on all exposed skin sites. • 6. If the participant is a woman of childbearing potential (WOCBP), they must be willing to use complete abstinence from sexual intercourse and/or they and their partner must be willing to use at least 2 highly-effective forms of birth control starting prior to Baseline, through the duration of the study, and for 12 months after last application of IP. • 7. If the participant is a male with a female sex partner who is a WOCBP, the participant must be willing to use condoms, even after a vasectomy, starting prior to Baseline, through the duration of the study, and for at least 8 months after the last application of IP. • 8. The participant is willing for all facial BCCs to be evaluated and treatment recommendations made only by the Investigator. • 9. The participant is willing to forego treatment of facial BCCs with anything other than the study IP except when the Investigator believes that delay of treatment of a facial BCC potentially might compromise the health of the subject. During the trial the only allowed form of treatment is surgical. Non-facial BCCs may be removed at the discretion of the Investigator or Primary Skin Care Physician (PSCP).
• 1. The subject has previously participated in a clinical trial evaluating patidegib topical gel. • 2. The participant has used topical treatment to the face or systemic therapies that might interfere with the evaluation of the study IP. Among these are use of the following: • a. 5-fluorouracil, imiquimod, diclofenac, or Ingenol mebutate (except as topical treatment to discrete non-facial BCCs) systemically or topically to the skin within the 2 months prior to the Screening Visit. • b. […]

[2] = system: basal cell carcinoma (BCC) lesions on the face; assay: Post hoc analysis of the Example 3 trial: Gorlin patients without PTCH1 mutation (Example 4); assay type: in vivo, human; conditions: for Number of qualifying nSEBs, observed, Mean / Number of new BCCs excluding no longer suspicious BCCs, observed, Mean: Gorlin syndrome without PTCH1 mutation, gel 2% twice daily to face; for Number of qualifying nSEBs, observed, Mean: baseline total BCC lesions at least 10; for Number of new BCCs excluding no longer suspicious BCCs, observed, Mean: baseline total facial BCC lesions at least 10
Procedure: as §1, with “treatment arms” for “treatment—Patidegib Topical Gel, 2%, versus Vehicle, resulted the”
A post hoc analysis was performed on the results of the clinical trial of Example 3 to analyze the impact of Patidegib on patients without PTCH1 mutation.

[3] = PTCH1 mutation, baseline total facial BCC lesions at least 6, gel 2% twice daily to face, month 3
[4] = PTCH1 mutation, baseline total facial BCC lesions at least 6, gel 2% twice daily to face, month 6
[5] = PTCH1 mutation, baseline total facial BCC lesions at least 6, gel 2% twice daily to face, month 9
[6] = PTCH1 mutation, baseline total facial BCC lesions at least 6, gel 2% twice daily to face, month 12
[7] = PTCH1 mutation, baseline total facial BCC lesions at least 8, gel 2% twice daily to face, month 3
[8] = PTCH1 mutation, baseline total facial BCC lesions at least 8, gel 2% twice daily to face, month 6
[9] = PTCH1 mutation, baseline total facial BCC lesions at least 8, gel 2% twice daily to face, month 9
[10] = PTCH1 mutation, baseline total facial BCC lesions at least 8, gel 2% twice daily to face, month 12
[11] = PTCH1 mutation, baseline total facial BCC lesions at least 10, gel 2% twice daily to face, month 3
[12] = PTCH1 mutation, baseline total facial BCC lesions at least 10, gel 2% twice daily to face, month 6
[13] = PTCH1 mutation, baseline total facial BCC lesions at least 10, gel 2% twice daily to face, month 9
[14] = PTCH1 mutation, baseline total facial BCC lesions at least 10, gel 2% twice daily to face, month 12
[15] = PTCH1 mutation, gel 2% twice daily to face
[16] = PTCH1 mutation, gel 2% twice daily to face, month 3
[17] = PTCH1 mutation, gel 2% twice daily to face, month 6
[18] = PTCH1 mutation, gel 2% twice daily to face, month 9
[19] = PTCH1 mutation, gel 2% twice daily to face, month 12
[20] = per subject, PTCH1 mutation, by month 12
[21] = per subject, more than 6 BCC lesions at baseline, Baseline to month 12

Compound: CC1=C2C[C@H]3[C@@H](CC[C@@H]4C[C@H](NS(C)(=O)=O)CC[C@@]43C)[C@@H]2CC[C@@]2(C1)O[C@@H]1C[C@H](C)CN[C@H]1[C@H]2C [Patidegib]
- Overall efficacy in treating or preventing BCC lesions (in words) ([1]; Gorlin syndrome with genetic mutation PTCH1): effective in treating or preventing BCC lesions
- Number of qualifying nSEBs, observed, Mean ([1]; PTCH1 mutation, baseline total BCC facial lesions at least 6, gel 2% twice daily to face, month 3): 0.28
- Number of qualifying nSEBs, observed, Mean ([1]; PTCH1 mutation, baseline total BCC facial lesions at least 6, gel 2% twice daily to face, month 6): 0.42
- Number of qualifying nSEBs, observed, Mean ([1]; PTCH1 mutation, baseline total BCC facial lesions at least 6, gel 2% twice daily to face, month 9): 0.83
- Number of qualifying nSEBs, observed, Mean ([1]; PTCH1 mutation, baseline total BCC facial lesions at least 6, gel 2% twice daily to face, month 12): 0.47
- Number of new BCCs excluding no longer suspicious BCCs, observed, Mean [1, 3]: 0.80
- Proportion of SEBs clinically resolved, observed, Mean [1, 3]: 6.61
- Number of new BCCs excluding no longer suspicious BCCs, observed, Mean [1, 4]: 1.68
- Proportion of SEBs clinically resolved, observed, Mean [1, 4]: 3.11
- Number of new BCCs excluding no longer suspicious BCCs, observed, Mean [1, 5]: 2.49
- Proportion of SEBs clinically resolved, observed, Mean [1, 5]: 10.22
- Number of new BCCs excluding no longer suspicious BCCs, observed, Mean [1, 6]: 2.78
- Proportion of SEBs clinically resolved, observed, Mean [1, 6]: 18.79
- Number of new BCCs excluding no longer suspicious BCCs, observed, Mean [1, 7]: 0.94
- Number of qualifying nSEBs, observed, Mean [1, 7]: 0.31
- Proportion of SEBs clinically resolved, observed, Mean [1, 7]: 5.98
- Number of new BCCs excluding no longer suspicious BCCs, observed, Mean [1, 8]: 1.96
- Number of qualifying nSEBs, observed, Mean [1, 8]: 0.52
- Proportion of SEBs clinically resolved, observed, Mean [1, 8]: 1.30
- Number of new BCCs excluding no longer suspicious BCCs, observed, Mean [1, 9]: 2.71
- Number of qualifying nSEBs, observed, Mean [1, 9]: 0.96
- Proportion of SEBs clinically resolved, observed, Mean [1, 9]: 8.73
- Number of new BCCs excluding no longer suspicious BCCs, observed, Mean [1, 10]: 2.96
- Number of qualifying nSEBs, observed, Mean [1, 10]: 0.52
- Proportion of SEBs clinically resolved, observed, Mean [1, 10]: 12.84
- Number of new BCCs excluding no longer suspicious BCCs, observed, Mean [1, 11]: 1.00
- Number of qualifying nSEBs, observed, Mean [1, 11]: 0.41
- Proportion of SEBs clinically resolved, observed, Mean [1, 11]: 8.50
- Number of new BCCs excluding no longer suspicious BCCs, observed, Mean [1, 12]: 1.93
- Number of qualifying nSEBs, observed, Mean [1, 12]: 0.64
- Proportion of SEBs clinically resolved, observed, Mean [1, 12]: 2.05
- Number of new BCCs excluding no longer suspicious BCCs, observed, Mean [1, 13]: 2.56
- Number of qualifying nSEBs, observed, Mean [1, 13]: 1.00
- Proportion of SEBs clinically resolved, observed, Mean [1, 13]: 13.39
- Number of new BCCs excluding no longer suspicious BCCs, observed, Mean [1, 14]: 2.88
- Number of qualifying nSEBs, observed, Mean [1, 14]: 0.56
- Proportion of SEBs clinically resolved, observed, Mean [1, 14]: 16.89
- LS Mean for new BCCs per year (Std Err) [1, 15]: 2.83
- Predicted new BCCs per year using observed covariates (95% CI) [1, 15]: 3.09
- Number of new BCCs excluding no longer suspicious BCCs, observed, Mean [1, 16]: 0.69
- Number of qualifying nSEBs, observed, Mean [1, 16]: 0.21
- Proportion of SEBs clinically resolved, observed, Mean [1, 16]: 5.42
- Number of new BCCs excluding no longer suspicious BCCs, observed, Mean [1, 17]: 1.59
- Number of qualifying nSEBs, observed, Mean [1, 17]: 0.38
- Proportion of SEBs clinically resolved, observed, Mean [1, 17]: 2.76
- Number of new BCCs excluding no longer suspicious BCCs, observed, Mean [1, 18]: 2.17
- Number of qualifying nSEBs, observed, Mean [1, 18]: 0.70
- Proportion of SEBs clinically resolved, observed, Mean [1, 18]: 8.11
- Number of new BCCs excluding no longer suspicious BCCs, observed, Mean [1, 19]: 2.61
- Number of qualifying nSEBs, observed, Mean [1, 19]: 0.50
- Proportion of SEBs clinically resolved, observed, Mean [1, 19]: 14.68
- Total new BCCs ([1]; all subjects of the arm, PTCH1 mutation, by month 12): 114
- Total BCCs surgeries from Baseline to month 12 ([1]; all subjects of the arm, more than 6 BCC lesions at baseline): 14
- Rate-ratio: Patidegib/Vehicle (Std Err) ([1]; new BCCs per year, PTCH1 mutation): 0.91
- Number of new BCCs by Month 12 - Max [1, 20]: 8
- Number of new BCCs by Month 12 - Median [1, 20]: 2.0
- Number of new BCCs by Month 12 - Min [1, 20]: 0
- Number of new BCCs by Month 12 - Q1 [1, 20]: 1.0
- Number of new BCCs by Month 12 - Q3 [1, 20]: 5.0
- Number of new BCCs by Month 12 - Mean (SD) ([1]; per subject, PTCH1 mutation, gel 2% twice daily to face, by month 12): 3.08
- Number of BCCs surgeries - Max [1, 21]: 5
- Number of BCCs surgeries - Median [1, 21]: 0.0
- Number of BCCs surgeries - Min [1, 21]: 0
- Number of BCCs surgeries - Q1 [1, 21]: 0
- Number of BCCs surgeries - Q3 [1, 21]: 1
- Number of BCCs surgeries - Mean (SD) ([1]; per subject, more than 6 BCC lesions at baseline, Baseline to month 12, gel 2% twice daily to face): 0.6 (1.47)
- Overall efficacy (in words) ([2]; Gorlin syndrome subjects who lacked the PTCH1 mutation (Examples 3 and 4)): produced no effect
- Number of qualifying nSEBs, observed, Mean ([2]; month 3): 0.25
- Number of qualifying nSEBs, observed, Mean ([2]; month 6): 0.92
- Number of qualifying nSEBs, observed, Mean ([2]; month 9): 1.38
- Number of qualifying nSEBs, observed, Mean ([2]; month 12): 2.50
- Number of new BCCs excluding no longer suspicious BCCs, observed, Mean ([2]; month 3): 1.00
- Number of new BCCs excluding no longer suspicious BCCs, observed, Mean ([2]; month 6): 2.92
- Number of new BCCs excluding no longer suspicious BCCs, observed, Mean ([2]; month 9): 4.75
- Number of new BCCs excluding no longer suspicious BCCs, observed, Mean ([2]; month 12): 6.67
